In US20260042764A1, “COMPOSITIONS AND METHODS FOR INHIBITION OF KRAS” (TheRas, Inc., priority 2022, published 2026):

Columns and labels:
[1] = target: T1, Avi-KRAS G12R (1-169) GppNHp/RAF1 RBD-3xFLAG (52-151) (Homo sapiens, UniProt P01116, G12R); test: Raf1-KRAS G12R-GppNHP disruption HTRF assay (Biological Example 1); type: binding
T1 construct: Avi-KRAS G12R (1-169)
Procedure, shortened: (§1)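 HTRF PPI disruption; buffer 50 mM Tris pH 7.5, 100 mM NaCl, 5 mM MgCl2, 0.1% BSA, 0.01% Tween, 10% DMSO. Protein mix 1 h RT shaking, reagent mix 1 h RT shaking. Data as % activity vs DMSO (100%).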

[2] = target: T2, Avi-KRAS G12D (1-169) GppNHp/RAF1 RBD-3xFLAG (52-151) (Homo sapiens, UniProt P01116, G12D); test: Raf1-KRAS G12D-GppNHP disruption HTRF assay (Biological Example 1); type: binding
T2 construct: Avi-KRAS G12D (1-169)
T2 sequence (P01116 1-169 isoform P01116-2 G12D): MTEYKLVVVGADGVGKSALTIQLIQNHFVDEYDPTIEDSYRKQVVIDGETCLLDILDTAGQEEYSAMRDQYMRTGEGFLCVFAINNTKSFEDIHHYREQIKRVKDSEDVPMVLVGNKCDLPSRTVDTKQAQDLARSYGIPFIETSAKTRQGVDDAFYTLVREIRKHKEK
Procedure, shortened: as §1

GP2d cells (KRAS G12D) = test: Cell-based pERK HTRF assay in GP2d cell (Biological Example 2); conditions: GP2d (KRAS G12D) cells, pERK HTRF
Procedure, shortened: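 Treatment with test compounds lasted one hour in DMEM containing 10% FBS, with DMSO held at 0.25%. Dilution series: 9 points, half-log spacing, highest 1 μM or 100 nM. Lysates were incubated 4–24 h at room temperature with antibody mix, then HTRF was read at 320 nm excitation.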

[3] = target: T3, Avi-KRAS WT (1-169) GppNHp/RAF1 RBD-3xFLAG (52-151) (Homo sapiens, UniProt P01116); test: Raf1-KRAS WT-GppNHP disruption HTRF assay (Biological Example 1); type: binding
T3 construct: Avi-KRAS WT (1-169)
T3 sequence (P01116 1-169 isoform P01116-2): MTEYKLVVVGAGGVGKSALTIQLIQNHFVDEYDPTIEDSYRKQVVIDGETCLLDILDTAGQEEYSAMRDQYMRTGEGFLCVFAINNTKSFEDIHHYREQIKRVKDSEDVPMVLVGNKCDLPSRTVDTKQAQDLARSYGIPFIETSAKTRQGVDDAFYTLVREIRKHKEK
Procedure, shortened: as §1

SW620 cells (KRAS G12V) = test: Cell-based pERK HTRF assay in SW620 cell (Biological Example 4); conditions: pERK HTRF
Procedure, shortened: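 Read-out: HTRF pERK signal (excitation 320 nm, emission 615 nm) from lysates of SW620 cells after 4 h compound exposure. Dose range was 9 points, half-log steps from 1 μM, in 0.25% DMSO; antibody incubation ran 4–24 h at room temperature.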

[4] = target: T4, Avi-KRAS G12V (1-169) GppNHp/RAF1 RBD-3xFLAG (52-151) (Homo sapiens, UniProt P01116, G12V); test: Raf1-KRAS G12V-GppNHP disruption HTRF assay (Biological Example 1); type: binding
T4 construct: Avi-KRAS G12V (1-169)
T4 sequence (P01116 1-169 isoform P01116-2 G12V): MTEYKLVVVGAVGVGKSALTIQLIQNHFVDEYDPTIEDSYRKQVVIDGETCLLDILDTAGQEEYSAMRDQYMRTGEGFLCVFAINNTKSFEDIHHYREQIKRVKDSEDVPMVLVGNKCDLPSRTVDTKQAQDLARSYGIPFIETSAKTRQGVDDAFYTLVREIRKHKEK
Procedure, shortened: as §1

[5] = Homo sapiens, SW-620, SW620 (KRAS G12V) cells
[6] = KRAS G12R, GppNHp-loaded, class symbols
[7] = KRAS G12D, GppNHp-loaded, class symbols
[8] = KRAS WT, GppNHp-loaded, class symbols
[9] = Homo sapiens, SW-620, SW620 (KRAS G12V) cells, class symbols
[10] = KRAS G12V, GppNHp-loaded, class symbols
[11] = KRAS G12R, GppNHp-loaded, Table 11
[12] = KRAS G12D, GppNHp-loaded, Table 11
[13] = KRAS WT, GppNHp-loaded, Table 11
[14] = KRAS G12V, GppNHp-loaded, Table 11

T1 sequence (P01116 1-169 isoform P01116-2 G12R): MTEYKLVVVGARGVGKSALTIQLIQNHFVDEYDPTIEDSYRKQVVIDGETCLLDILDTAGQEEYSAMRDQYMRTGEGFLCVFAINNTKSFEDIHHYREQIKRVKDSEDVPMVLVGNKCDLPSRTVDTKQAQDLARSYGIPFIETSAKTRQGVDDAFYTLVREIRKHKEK

| Compound | IC50 ([1]; KRAS G12R-GppNHp/RAF1 RBD HTRF) | IC50 ([2]; KRAS G12D-GppNHp/RAF1 RBD HTRF) | IC50 (GP2d cells (KRAS G12D); GP2d) | IC50 ([3]; KRAS WT-GppNHp/RAF1 RBD HTRF) | IC50 (SW620 cells (KRAS G12V); [5]) | IC50 ([4]; KRAS G12V-GppNHp/RAF1 RBD HTRF) | IC50 [1, 6] | IC50 [2, 7] | IC50 (GP2d cells (KRAS G12D); GP2d, class symbols) | IC50 [3, 8] | IC50 (SW620 cells (KRAS G12V); [9]) | IC50 [4, 10] | other results |
| --- | --- | --- | --- | --- | --- | --- | --- | --- | --- | --- | --- | --- | --- |
| CN1CCN(c2nc(OC[C@@]34CCCN3C[C@H](F)C4)nc3c(F)c(-c4ccc(F)c5sc(N)c(C#N)c45)c(C(F)(F)F)cc23)CCS1(=O)=O [Compound 311] | > 10000 nM | > 10000 nM | > 1000 nM | > 10000 nM | > 1000 nM | > 10000 nM |  |  |  |  |  |  |  |
| C[C@H]1CN(c2nc(OC[C@@]34CCCN3C[C@H](F)C4)nc3c(F)c(-c4ccc(F)c5sc(N)c(C#N)c45)c(C(F)(F)F)cc23)Cc2cc(C(=O)N(C)C)nn21 [Compound 402] | 100 to 1000 nM | 100 to 1000 nM | < 100 nM | 1000 to 10000 nM | < 100 nM | 100 to 1000 nM |  |  |  |  |  |  |  |
| CCC(=O)N1CC[C@@H](N(CC)c2nc(OC[C@@]34CCCN3C[C@H](F)C4)nc3c(F)c(-c4ccc(F)c5sc(N)c(C#N)c45)c(Cl)cc23)[C@@H]1C [Compound 417] | 1000 to 10000 nM | 100 to 1000 nM | < 100 nM | 100 to 1000 nM | 100 to 1000 nM | 1000 to 10000 nM |  |  |  |  |  |  |  |
| CCN(c1nc(OC[C@@]23CCCN2C[C@H](F)C3)nc2c(F)c(-c3ccc(F)c4sc(N)c(C#N)c34)c(C(F)(F)F)cc12)[C@@H]1C[C@H](C)N(C(=O)COC)C1 (atropisomer, axis not shown) [Compound 589] |  |  |  |  |  |  | 100 to 1000 nM | 100 to 1000 nM | < 100 nM | 100 to 1000 nM | < 100 nM | 100 to 1000 nM |  |
| CCN(c1nc(OC[C@@]23CCCN2C[C@H](F)C3)nc2c(F)c(-c3ccc(F)c4sc(N)c(C#N)c34)c(C(F)(F)F)cc12)[C@H]1C[C@H]2CN(C3CCC3)C(=O)N2C1 (atropisomer, axis not shown) [Compound 757] |  |  |  |  |  |  | < 100 nM | < 100 nM | < 100 nM | < 100 nM | < 100 nM | < 100 nM |  |
| CO[C@@H]1C[C@@H](COc2nc(N(C)[C@H]3CCN(C(C)=O)[C@H]3C)c3cc(C(F)(F)F)c(-c4ccc(F)c5sc(N)c(C#N)c45)c(F)c3n2)N(C)C1 [Compound 238] |  |  | > 1000 nM |  | > 1000 nM |  |  |  |  |  |  |  | IC50 [1, 11]: > 10000 nM; IC50 [2, 12]: > 10000 nM; IC50 [3, 13]: > 10000 nM; IC50 [4, 14]: > 10000 nM |
| CN(c1nc(OC[C@@]23CCCN2C[C@H](F)C3)nc2c(F)c(-c3ccc(F)c4sc(N)c(C#N)c34)c(C(F)(F)F)cc12)[C@H]1CC(=O)N(C2CC2)C1 (atropisomer, axis not shown) [Compound 616] |  |  |  |  |  |  | < 100 nM | < 100 nM | < 100 nM | < 100 nM | < 100 nM | < 100 nM |  |
| CCN(c1nc(OC[C@@]23CCCN2C[C@H](F)C3)nc2c(F)c(-c3ccc(F)c4sc(N)c(C#N)c34)c(C(F)(F)F)cc12)[C@H]1C[C@H](COC)N(C(C)=O)C1 (atropisomer, axis not shown) [Compound 647] |  |  |  |  |  |  | 100 to 1000 nM | < 100 nM | < 100 nM | 100 to 1000 nM | < 100 nM | < 100 nM |  |
| CCN(c1nc(OC[C@@]23CCCN2C[C@H](F)C3)nc2c(F)c(-c3ccc(F)c4sc(N)c(C#N)c34)c(C(F)(F)F)cc12)[C@H]1C[C@H](C)N(C(=O)[C@@H](C)OC)C1 (atropisomer, axis not shown) [Compound 747] |  |  |  |  |  |  | 100 to 1000 nM | 100 to 1000 nM | < 100 nM | 100 to 1000 nM | < 100 nM | 100 to 1000 nM |  |
| N#Cc1c(N)sc2c(F)ccc(-c3c(Cl)cc4c(N5C[C@H]6C[C@@H]5CO6)nc(OC[C@@]56CCCN5C[C@H](F)C6)nc4c3F)c12 [Compound 364] | 1000 to 10000 nM | 100 to 1000 nM | < 100 nM | 1000 to 10000 nM | < 100 nM | 1000 to 10000 nM |  |  |  |  |  |  |  |
| CCN(c1nc(OCC23CCCN2CC(F)C3)nc2c(F)c(-c3ccc(F)c4sc(N)c(C#N)c34)c(C(F)(F)F)cc12)C1CCN(C(=O)c2ccncc2)C1 (stereo not drawn) [Compound 709] |  |  |  |  |  |  | < 100 nM | < 100 nM | < 100 nM | < 100 nM | < 100 nM | < 100 nM |  |
| N#Cc1c(N)sc2c(F)ccc(-c3c(C(F)(F)F)cc4c(N5CCOC6CC65)nc(OC[C@@]56CCCN5C[C@H](F)C6)nc4c3F)c12 (stereo partly drawn) [Compound 148] |  |  | < 100 nM |  | < 100 nM |  |  |  |  |  |  |  | IC50 [1, 11]: 100 to 1000 nM; IC50 [2, 12]: 100 to 1000 nM; IC50 [3, 13]: 100 to 1000 nM; IC50 [4, 14]: 100 to 1000 nM |
| CCN(c1nc(OC[C@@]23CCCN2C[C@H](F)C3)nc2c(F)c(-c3ccc(F)c4sc(N)c(C#N)c34)c(C(F)(F)F)cc12)[C@H]1CCN(C(=O)N2CC3C(C2)C3(F)F)C1 (stereo partly drawn) [Compound 657] |  |  |  |  |  |  | < 100 nM | < 100 nM | < 100 nM | < 100 nM | < 100 nM | < 100 nM |  |
| COC(=O)N1CC[C@H]2[C@@H]1CN2c1nc(OC[C@@]23CCCN2C[C@H](F)C3)nc2c(F)c(-c3ccc(F)c4sc(N)c(C#N)c34)c(C(F)(F)F)cc12 (atropisomer, axis not shown) [Compound 716] |  |  |  |  |  |  | > 10000 nM | 1000 to 10000 nM | < 100 nM | 1000 to 10000 nM | 100 to 1000 nM | > 10000 nM |  |
| N#Cc1c(N)sc2c(F)ccc(-c3c(C(F)(F)F)cc4c(N5CCn6nccc6C5)nc(OC[C@@]56CCCN5C[C@H](F)C6)nc4c3F)c12 [Compound 233] |  |  |  |  |  |  |  |  |  |  |  |  | IC50 [1, 11]: 100 to 1000 nM; IC50 [2, 12]: 100 to 1000 nM; IC50 (GP2d cells (KRAS G12D)): < 100 nM; IC50 [3, 13]: 100 to 1000 nM; IC50 (SW620 cells (KRAS G12V); SW620 (KRAS G12V) cells): < 100 nM; IC50 [4, 14]: 1000 to 10000 nM |
| CC(=O)N1C[C@H](O)[C@@H](N(C)c2nc(OC[C@@]34CCCN3C[C@H](F)C4)nc3c(F)c(-c4ccc(F)c5sc(N)c(C#N)c45)c(C(F)(F)F)cc23)C1 [Compound 347] | 100 to 1000 nM | < 100 nM | < 100 nM | 100 to 1000 nM | 100 to 1000 nM | 100 to 1000 nM |  |  |  |  |  |  |  |
| N#Cc1c(N)sc2c(F)ccc(-c3c(C(F)(F)F)cc4c(N5CCCN6C(=O)CC[C@H]6C5)nc(OC[C@@]56CCCN5C[C@H](F)C6)nc4c3F)c12 [Compound 487] | 1000 to 10000 nM | 100 to 1000 nM | < 100 nM | 100 to 1000 nM | < 100 nM | 1000 to 10000 nM |  |  |  |  |  |  |  |
| CCN(c1nc(OC[C@@]23CCCN2C[C@H](F)C3)nc2c(F)c(-c3ccc(F)c4sc(N)c(C#N)c34)c(C(F)(F)F)cc12)[C@H]1CCN(C(=O)OC2CCC2)C1 (atropisomer, axis not shown) [Compound 802] |  |  |  |  |  |  | < 100 nM | < 100 nM | < 100 nM | 100 to 1000 nM | < 100 nM | < 100 nM |  |
